“Also recorded” adds a separate entry of the source. Ends that are not written are not given here.
Experiments:
B16F10 melanoma cells = experiment: Melanin content assay in B16F10 cells; format: cell-based, mouse; conditions: VY-9 1.6 µM, 48 h, 405 nm
Procedure: In order to assess melanin content, culture flasks were used to grow B16F10 cells (1 × 10^5 cells/flask) for 24 h. […] Cell harvesting was conducted by trypsinization and the cells were then rinsed twice in cold PBS. The cell pellets were then dissolved in 0.3 mL of 1 N NaOH to produce solutions which were heated to 90 °C for a one-hour period. The lysates were then placed in a centrifuge for 10 min at 3,000 × g whereupon a microplate reader was used to assess the melanin quantity at 405 nm. The protein content in the supernatant was evaluated using the Bradford protein assay with the findings presented in the form of a percentage of the control. Arbutin (0.2 mM) served as the positive control. Each trial was carried out in triplicate, with results presented in the form of mean ± standard deviation.

mushroom TYR = molecular target: T1, mushroom TYR (Agaricus bisporus, UniProt C7FF04); experiment: Kinetic study, Lineweaver-Burk, di-phenolase; format: biochemical; conditions: Km rose, Vmax unchanged
T1 construct: purchased Sigma-Aldrich, Merck T3824
T1 sequence (C7FF04 2-392): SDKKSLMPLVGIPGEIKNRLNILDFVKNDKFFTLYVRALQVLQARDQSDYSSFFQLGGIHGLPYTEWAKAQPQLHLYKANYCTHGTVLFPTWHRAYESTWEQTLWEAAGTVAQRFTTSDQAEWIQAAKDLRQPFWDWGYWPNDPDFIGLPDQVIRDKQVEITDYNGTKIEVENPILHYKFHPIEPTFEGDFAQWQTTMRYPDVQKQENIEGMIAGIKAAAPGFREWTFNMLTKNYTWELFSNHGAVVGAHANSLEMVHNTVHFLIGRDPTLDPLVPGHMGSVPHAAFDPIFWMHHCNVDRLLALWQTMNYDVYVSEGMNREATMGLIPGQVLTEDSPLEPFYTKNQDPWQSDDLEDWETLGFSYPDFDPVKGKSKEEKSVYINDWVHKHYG
Procedure: It is necessary to determine the type of TYR inhibitory activity which takes place. This can be achieved through a modified version of an assay described by Feng et al.[39]. The process starts by dissolving the peptide VY-9 in deionized water at various concentrations (0, 0.25, 0.5, and 1 mM). Each VY-9 peptide sample at each concentration (35 µL) was combined 15 µL of mushroom TYR (333 U/mL in 50 mM PBS pH 6.8) prior to 5 min of incubation at 25 °C. Subsequently, various concentrations of substrate were introduced, namely 0–2 mM L-tyrosine in the case of mono-phenolase, and 0–12 mM L-DOPA for di-phenolase. These new mixtures underwent further incubation for 30 min at the same temperature of 25 °C. Upon completion, a spectrophotometer was used to measure the absorbance and determine the inhibitory activity at 490 nm. Lineweaver-Burk plots were then used in calculating Km and Vmax, the kinetic parameters. Km is indicated by the intersection point on the X-axis while Vmax is indicated by the intersection point on the Y-axis in the mode of TYR inhibition under examination. Construction of the plots linked the substrate concentration reciprocal on the X-axis and the absorbance reciprocal (at 490 nm) on the Y-axis, to represent the starting rate for the enzymatic reaction. […]

Trp-1 = experiment: qRT-PCR, Trp-1 mRNA; format: cell-based, mouse; conditions: B16F10, 48 h
Procedure: A 6-well plate was used to seed B16F10 cells at 1 × 10^5 cells per well prior to overnight incubation in a 5% CO2 humid atmosphere at 37°C. […] Harvesting was conducted via removal of the supernatant, and the cells were rinsed twice in PBS (phosphate-buffered saline). The PureLink™RNA Mini Kit (Invitrogen™, USA) was then used to extract total RNA in line with the guidance of the manufacturer. RNA concentration was assessed at 260 nm with a NanoDrop 2000 UV-Vis spectrophotometer (Thermo Fisher Scientific, Inc.). Oligo-dT primers and a Precision nanoScript II Reverse Transcription Kit (PrimerDesign, Camberley, UK) were used to perform the reverse transcription of 1 µg of total RNA to cDNA in line with the guidance of the manufacturer. MyGo Pro®Real time PCR apparatus (IT-IS International Ltd., Stokesley, UK) was then used to perform the qRT-PCR assays in which 20 µL of PCR reaction contained 1 µL of cDNA, 7 µL of ultrapure water, 1 µL of each primer […], and 10 µL of 2×qPCRBIO SyGreen Mix (PCR Biosystems Ltd, London, UK). […] The relative gene expression level could then be calculated via the cycle threshold (Ct) value, while the role of endogenous control for data normalization was occupied by Gapdh (the housekeeping gene). […]

Mitf = experiment: qRT-PCR, Mitf mRNA; format: cell-based, mouse; conditions: B16F10, 48 h
Procedure: A 6-well plate was used to seed B16F10 cells at 1 × 10^5 cells per well prior to overnight incubation in a 5% CO2 humid atmosphere at 37°C. […] Harvesting was conducted via removal of the supernatant, and the cells were rinsed twice in PBS (phosphate-buffered saline). The PureLink™RNA Mini Kit (Invitrogen™, USA) was then used to extract total RNA in line with the guidance of the manufacturer. RNA concentration was assessed at 260 nm with a NanoDrop 2000 UV-Vis spectrophotometer (Thermo Fisher Scientific, Inc.). Oligo-dT primers and a Precision nanoScript II Reverse Transcription Kit (PrimerDesign, Camberley, UK) were used to perform the reverse transcription of 1 µg of total RNA to cDNA in line with the guidance of the manufacturer. MyGo Pro®Real time PCR apparatus (IT-IS International Ltd., Stokesley, UK) was then used to perform the qRT-PCR assays in which 20 µL of PCR reaction contained 1 µL of cDNA, 7 µL of ultrapure water, 1 µL of each primer […], and 10 µL of 2×qPCRBIO SyGreen Mix (PCR Biosystems Ltd, London, UK). This research made use of the following PCR primers: Gapdh forward 5’-[…]-3’, Gapdh reverse 5’-[…]-3’, Tyr forward 5’-[…]-3’, Tyr reverse 5’-[…]-3’, Trp-1 forward 5’-[…]-3’, Trp-1 reverse 5’-[…]-3’, Trp-2 forward 5’-[…]-3’, Trp-2 reverse 5’-[…]-3’, Mitf forward 5’-[…] − 3’, Mitf reverse 5’-[…]-3’. The initial stage of the process of qRT-PCR amplification was the activation step of thermal treatment where a temperature of 95 °C was used for 2 min, with 45 subsequent cycles comprising 10 s at 95 °C, 20 s at 60 °C, and 30 s at 72 °C, before embarking upon the final melting curve from 60 to 97 °C with 1 min for each step. The relative gene expression level could then be calculated via the cycle threshold (Ct) value, while the role of endogenous control for data normalization was occupied by Gapdh (the housekeeping gene). To calculate relative gene expression, the formula given below can be employed:2 [drawing 2]
where the heightened threshold cycle for the target gene is given as ΔΔCt.

zebrafish embryos = experiment: Melanin inhibitory assay in zebrafish embryos; format: in vivo; conditions: 48 h after fertilization, vs control
Procedure: To perform the test of acute toxicity, a total of 20 fertilized zebrafish embryos were collected at around 4 h after fertilization and added to each well in a 12-well plate. These embryos then underwent treatment using different quantities of […] (2, 4, 6, 8, and 10 µM), while the negative control was distilled water and the positive control was 3,4-dichloroaniline. Incubation of the plate then took place until 48 h after fertilization at a temperature of 28.5 ± 1 °C. The test solutions were refreshed at 24 h after fertilization to allow the counting and removal of any dead embryos. Following exposure, a stereomicroscope (SZX16, Olympus, Japan) was used to record the embryo morphological effects. Meanwhile, a slightly modified version of a previously described melanin inhibitory assay was carried out[30]. The embryos were then homogenized using a cold lysis buffer (PBS pH 7.4, 1% Triton-X and 1% DMSF). The lysate then underwent 10 min of sonication before being placed in a centrifuge for 5 min at 10,000×g. The pellet was then removed from the centrifuge and dissolved in 200 µL of 1 N NaOH for 1 h at a temperature of 85 °C. This sample was subsequently vortexed and placed in the centrifuge for a further 5 min at 10,000×g. A microplate reader (Spectramax M5, Molecular Devices, USA) was then employed to determine the supernatant absorbance at 490 nm. Melanin content levels could then by calibrated by using the protein amount, and were reported in the form of a percentage compared to the untreated control. In the melanin inhibitory assay, the positive control used was phenylthiourea (PTU) solution (0.0015%).

## VDGYPAAGY [VY-9, Val-Asp-Gly-Tyr-Pro-Ala- Ala-Gly-Tyr]
B16F10 melanoma cells
  reduction in melanin content: 52.31%
Mushroom TYR
  inhibition type, di-phenolase: competitive inhibitor
Trp-1; 1.6 µM
  Trp-1 mRNA expression vs control: significantly reduced the expression levels of all measured genes
Trp-1; vs control
  concentration at which Trp-1 mRNA expression was reduced (highest only): 1.6 µM
Mitf; 1.6 µM
  Mitf mRNA expression vs control: significantly reduced the expression levels of all measured genes
Mitf; vs control
  concentration from which Mitf mRNA expression decreased: 0.2 µM
Mitf; VY-9 1.6 µM vs arbutin 0.2 mM
  Mitf mRNA expression vs arbutin: significantly decreased compared to arbutin
Zebrafish embryos; 4 µM
  melanin content: anti-melanogenic effects were observed; also recorded: the lowest among all treatment groups, it did not achieve statistical significance
Zebrafish embryos; any concentration (2–10 µM)
  melanin content: no significant reduction in melanin levels at any concentration

Reference: PMC11681159, “Bee pollen peptides as potent tyrosinase inhibitors with anti-melanogenesis effects in murine b16f10 melanoma cells and zebrafish embryos” (Scientific Reports, 2024)
